{"source": "patent US20170071901A1", "about": "“METHODS AND FORMULATIONS FOR INCREASING CHEMICAL STABILITY AND BIOLOGICAL ACTIVITY OF PHENOLIC COMPOUNDS” (priority 2015, published 2017)", "key": {"MC38 colon cancer cells [1]": {"test_system": "MC38 colon cancer cells", "assay": "MC38 colon cancer cell proliferation (MTT assay)", "format": "cell-based", "settings": "for effect of antioxidant alone on MC38 cell proliferation: 3.9-62.5 μM antioxidant alone; for effect of antioxidant alone on MC38 cell proliferation / effect of antioxidant on anti-proliferative effect of curcumin: 24 h; for effect of antioxidant on anti-proliferative effect of curcumin: MC38, curcumin 20 μM with antioxidant (3.9 μM each, FIG. 4D); for inhibition at 10 µg/mL: Mus musculus", "procedure": "MC38 colon cancer cells (a gift from Prof. Ajit Varki at the University of California, San Diego) were plated into 96-well plates (6,000 cells per well) in 100 μL Dulbecco's Modified Eagle Medium (DMEM, purchased from Lonza, Allendale, N.J.) fortified with 10% Fetal Bovine Serum ([…], purchased from Coming Inc., Corning, N.Y.) and allowed to attach overnight. […] Nitteranon, V.; Chan, L. Y.; Parkin, K. L. Glutathione conjugation attenuates biological activities of 6-dehydroshogaol from ginger. Food Chem. 140:1-8; 2013, which is incorporated by reference herein in its entirety and for all purposes."}, "[2]": {"settings": "for stability of the compound in phosphate buffer (HPLC): 25 μM of each compound, 0.1 M phosphate buffer pH 7.4"}, "[3]": {"test_system": "LPS-induced NO production", "assay": "LPS-induced NO production in RAW 264.7 macrophage cells", "format": "cell-based"}, "MC38 colon cancer cells [4]": {"test_system": "MC38 colon cancer cells", "assay": "Cell cycle progression and apoptosis in MC38 colon cancer cells", "format": "cell-based", "settings": "MC38, 24 hour treatment"}, "NF-kB signaling": {"test_system": "NF-kB signaling", "assay": "LPS-induced NF-kB signaling in RAW 264.7 macrophage cells", "format": "cell-based"}, "iNOS": {"test_system": "iNOS", "assay": "LPS-induced expression of iNOS in RAW 264.7 macrophage cells", "format": "cell-based"}, "[5]": {"settings": "aqueous buffer, background statement; cited from earlier work"}, "physchem": {"assay": "physchem", "settings": "0.1 M phosphate buffer, pH 7.4"}, "COX-2": {"test_system": "COX-2", "settings": "RAW 264.7 macrophage cells"}, "colorectal cancer": {"test_system": "colorectal cancer", "settings": "human, cited from earlier work"}, "[6]": {"assay": "Curcumin stability in serum-free basal DMEM medium (HPLC)", "format": "physicochemical", "from_the_text": "(A1-A6) Representative microscope images of the treated cells. […] The results are mean ±SD, The samples designated with different letters are statistically different (P <0.05)."}, "[7]": {"assay": "Plasma concentration of curcumin in mice after i.p. injection (HPLC)", "format": "in vivo", "settings": "male, Swiss Webster, mouse, intraperitoneal, 20 mg/kg", "procedure": "After 1 h, the mice were sacrificed to harvest the blood. The harvested blood was centrifuged at 1,200 g for 10 min at 4° C. to prepare the plasma fraction; then 200 μL plasma was immediately extracted with 400 μL ethyl acetate, the ethyl acetate extract was dried and reconstituted in methanol for HPLC analysis.\nThe mobile phase consisted methanol with 0.1% acetic acid (mobile phase B) and water with 0.1% acetic acid (mobile phase A)."}, "[8]": {"test_system": "Cadmium-induced hepatotoxicity", "settings": "rats; 200-400 mg/kg curcumin alone, 400 mg/kg ascorbate alone, or their combination; cited from earlier work"}, "[9]": {"test_system": "advanced pancreatic cancer", "settings": "human, daily intake of 8 grams; cited from earlier work"}, "[10]": {"settings": "25 μM curcumin, 0.1 M phosphate buffer, with or without 150 μM antioxidant, HPLC, % of time 0"}}, "note": "“Also recorded” adds a separate entry of the source. Where two headings read alike, the source gives them in different places."}
{"compound": "Cc1c(C)c2c(c(C)c1O)CCC(C)(C(=O)O)O2", "note": "(stereo not drawn) [Trolox]", "values": [{"measurement": "effect of antioxidant alone on MC38 cell proliferation", "setting": "MC38 colon cancer cells [1]", "value": "no effect"}, {"measurement": "effect of antioxidant on anti-proliferative effect of curcumin", "setting": "MC38 colon cancer cells [1]", "value": "significantly increased anti-proliferative effects of curcumin"}]}
{"compound": "COc1ccc(C=CC(=O)CC(=O)C=Cc2ccc(OC)c(OC)c2)cc1OC", "note": "[dimethoxy curcumin, 1,7-bis(3,4-dimethoxyphenyl)-1,6-heptadiene-3,5-dione]", "values": [{"measurement": "stability of the compound in phosphate buffer (HPLC)", "setting": "[2]", "value": "very stable"}]}
{"compound": "O=C1O[C@H]([C@@H](O)CO)C(O)=C1O", "note": "[ascorbate]", "values": [{"measurement": "effect of antioxidant alone on MC38 cell proliferation", "setting": "MC38 colon cancer cells [1]", "value": "no effect"}]}
{"compound": "O=C(O)/C=C/c1ccc(O)c(O)c1", "note": "[caffeic acid]", "values": [{"measurement": "effect of antioxidant on anti-proliferative effect of curcumin", "setting": "MC38 colon cancer cells [1]", "value": "significantly increased anti-proliferative effects of curcumin"}]}
{"compound": "CC(C)(C)c1cc(O)ccc1O", "note": "[TBHQ, tert-butylhydroquinone]", "values": [{"measurement": "effect of antioxidant on anti-proliferative effect of curcumin", "setting": "MC38 colon cancer cells [1]", "value": "significantly increased anti-proliferative effects of curcumin"}]}
{"compound": "bicyclopentadione [BCP]", "values": [{"measurement": "inhibition of LPS-induced NO production", "setting": "[3]", "value": "no effect"}, {"measurement": "G2 cell cycle arrest and apoptosis", "setting": "MC38 colon cancer cells [4]", "value": "neither TDP nor BCP had such effects"}, {"measurement": "inhibition of cancer cell proliferation in the tested dose range", "setting": "MC38 colon cancer cells [1]; MC38, 10-40 μg/mL, 24-72 h treatment", "value": "completely inactive"}, {"measurement": "inhibition of LPS-induced NF-kB signaling (IKK phosphorylation, IκBα degradation, nuclear translocation of p65)", "setting": "NF-kB signaling", "value": "neither TDP nor BCP had such inhibitory effect"}, {"measurement": "inhibition of LPS-induced expression of iNOS", "setting": "iNOS", "value": "no effect"}]}
{"compound": "O=C([O-])CN(CCN(CC(=O)O)CC(=O)O)CC(=O)[O-].[Na+].[Na+]", "note": "[EDTA, disodiumethylenediaminetetra acetic acid]", "values": [{"measurement": "protective effect of EDTA on curcumin stability (HPLC)", "setting": "[2]; EDTA even at a dose as high as 200 μM, phosphate buffer", "value": "little protective effect"}]}
{"compound": "O=C(O)c1cc(O)c(O)c(O)c1", "note": "[gallic acid]", "values": [{"measurement": "effect of antioxidant on anti-proliferative effect of curcumin", "setting": "MC38 colon cancer cells [1]", "value": "significantly increased anti-proliferative effects of curcumin"}, {"measurement": "effect of co-added antioxidant on curcumin stability (colorimetric assay, absorbance 420 nm)", "setting": "[2]; 25 μM curcumin, phosphate buffer, dose of antioxidants 15 and 1.50 μM as printed", "value": "dramatically increased curcumin stability"}, {"measurement": "effect of co-added antioxidant on long-term stability of curcumin", "setting": "[2]; 24-h and 48-h incubation, antioxidant 150 μM, 25 μM curcumin, phosphate buffer, HPLC", "value": "significantly increased long-term stability of curcumin"}]}
{"compound": "COc1cc(/C=C/C(=O)CC(=O)/C=C/c2ccc(O)c(OC)c2)ccc1O", "note": "[curcumin]", "values": [{"measurement": "inhibition of LPS-induced NO production", "setting": "[3]", "value": "inhibited LPS-induced NO production in a dose-dependent manner"}, {"measurement": "half-life of curcumin at physiological pH", "setting": "[5]", "value": "several minutes"}, {"measurement": "G2 cell cycle arrest and apoptosis", "setting": "MC38 colon cancer cells [4]", "value": "significantly induced G2 cell cycle arrest and apoptosis"}, {"measurement": "half-life at 25 μM", "setting": "physchem", "value": "< 10", "unit": "min"}, {"measurement": "inhibition of LPS-induced expression of inflammatory protein COX-2", "setting": "COX-2", "value": "inhibited"}, {"measurement": "effect in Phase IIa trial of colorectal cancer at 2 grams/day", "setting": "colorectal cancer; 2 grams/day", "value": "no effect"}, {"measurement": "effect in Phase IIa trial of colorectal cancer at 4 grams/day", "setting": "colorectal cancer; 4 grams/day", "value": "only inhibited aberrant crypt foci; also recorded: only reduced colorectal cancer risks"}, {"measurement": "reduction of aberrant crypt foci", "setting": "colorectal cancer; daily intake of 4 grams of curcumin for a month", "value": "~40", "unit": "%"}, {"measurement": "stability of curcumin in basal medium", "setting": "[6]", "value": "rapidly degraded"}, {"measurement": "concentration at 1 h", "setting": "[7]", "value": "14.8 ± 16", "unit": "nM"}, {"measurement": "inhibition at 10 µg/mL", "setting": "MC38 colon cancer cells [1]; MC-38, 24 h, read-out: inhibition of MC38 proliferation after 24 h treatment", "value": "~60", "unit": "%"}, {"measurement": "inhibition at 10 µg/mL", "setting": "MC38 colon cancer cells [1]; MC-38, read-out: inhibition of MC38 proliferation after 48-72 h treatment", "value": "> 95", "unit": "%"}, {"measurement": "degradation of curcumin in the buffer (HPLC)", "setting": "[2]; 25 μM curcumin, 0.1 M phosphate buffer pH 7.4, after ~12-min incubation", "value": "80-90%"}, {"measurement": "curcumin remaining in the phosphate buffer after 24-h incubation", "setting": "[2]; [10]", "value": "~5.9", "unit": "%"}, {"measurement": "curcumin remaining in the phosphate buffer after 48-h incubation", "setting": "[2]; [10]", "value": "~4.2", "unit": "%"}, {"measurement": "stability of the compound in phosphate buffer (HPLC)", "setting": "[2]", "value": "rapidly degraded"}, {"measurement": "inhibition of LPS-induced NF-kB signaling (IKK phosphorylation, IκBα degradation, nuclear translocation of p65)", "setting": "NF-kB signaling", "value": "inhibited LPS-induced activation of NF-kB signaling"}, {"measurement": "inhibition of LPS-induced expression of iNOS", "setting": "iNOS", "value": "dose-dependently inhibited"}, {"measurement": "effect on Cadmium-induced hepatotoxicity", "setting": "[8]", "value": "no effect"}, {"measurement": "anti-cancer efficacy in advanced pancreatic cancer", "setting": "[9]", "value": "demonstrates anti-cancer efficacy in some patients"}]}
{"compound": "O=C(/C=C/c1ccc(O)c(O)c1)O[C@H](Cc1ccc(O)c(O)c1)C(=O)O", "note": "[rosmarinic acid]", "values": [{"measurement": "effect of antioxidant on anti-proliferative effect of curcumin", "setting": "MC38 colon cancer cells [1]", "value": "significantly increased anti-proliferative effects of curcumin"}]}
